Values quoted from earlier work, collected in patent US20070218119A1, “STEROL ENRICHED MIXED LAMMELARITY AMPHOTERICIN INTERCALATING LIPOSOMES IN SALINE AND THE PROCESS FOR THEIR PREPARATION” (priority 2004, published 2007).

Details: conventional Amphotericin B mixed with 0.9% Sodium Chloride (Martindale)

For `C[C@@H]1[C@H](O)[C@@H](C)/C=C/C=C/C=C/C=C/C=C/C=C/C=C/[C@H](O[C@@H]2O[C@H](C)[C@@H](O)[C@H](N)[C@@H]2O)C[C@@H]2O[C@](O)(C[C@@H](O)C[C@@H](O)[C@H](O)CC[C@@H](O)C[C@@H](O)CC(=O)O[C@H]1C)C[C@H](O)[C@H]2C(=O)O` [conventional Amphotericin B, Amphotericin B], the “precipitation in 0.9% Sodium Chloride” value is listed as “precipitation of Amphotericin B”.
